In patent US7855200B2, “Method for treatment of gastric ulcers and ulcers induced by aspirin” (Council of Scientific and Industrial Research, priority 2006, dated 2010):

What was measured:
Type in all cases: in vivo, albino rats
[1] = tested on: acetyl salicylic acid induced gastric lesions; experiment: Acetyl salicylic acid (aspirin) induced gastric ulcer; parameters: Ulcer index Mean(SE): scale not given here; conditions: rats, 25 mg/kg per orally daily for five days, aspirin 200 mg/kg
Method in brief: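 Rats in groups of 6 were dosed orally once a day for five days with test compounds suspended in 1% Tween 80. A 1% Tween 80 control group and a ranitidine 50 mg/kg group were included. Aspirin at 200 mg/kg was given orally 30 min after each dose. After a 24 hour fast, the rats were killed by cervical dislocation. Stomachs were opened along the greater curvature, rinsed with lukewarm saline, examined under a dissecting microscope and scored for ulcer index.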

[2] = tested on: ethanol induced gastric ulcers; experiment: Ethanol induced ulcers; conditions: rats, 25 mg/kg, ethanol challenge
Method in brief: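 Rats in groups of 6, fasted 48 h, given Tween 80 (1%) vehicle, reference drugs, or test compounds at 25 mg/kg; lesions induced 1 h after ethanol challenge. Pylorus ligated under ether; 4 h later gastric contents centrifuged and total acid titrated with 0.01N NaOH.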

[3] = tested on: Pylorus ligated rats; experiment: Pylorus ligated ulcers; conditions: 25 mg/kg, 4 hours after pylorus ligation
Method in brief: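 Albino rats, fasted 48 h, dosed with test compound (25 mg/kg, or 50, 25, 15, 10 and 5 mg/kg) or ranitidine 50 mg/kg in 1% Tween 80 vehicle. Pylorus ligated under ether 1 h post-dose. Gastric contents collected 4 h later, centrifuged, and total acid titrated with 0.01N NaOH.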

[4] = tested on: gastric ulceration in cold restraint rats; experiment: Cold restraint (stress) induced ulcers; parameters: Ulcer index Mean(SE): scale not given here; conditions: rats, 25 mg/kg per orally, 4° C. for 2 hours
Method in brief: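 Albino rats, fasted 48 h with free water, dosed orally with compound at 25 mg/kg or at 50, 25, 15, 10 and 5 mg/kg in 1% Tween 80 vehicle. Water removed 1 h before restraint at 4° C for 2 h. Sacrificed 2 h after stress; stomachs opened along greater curvature and scored as mean ulcer index.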

[5] = tested on: gastric ulcers induced by aspirin, ethanol, stress and pylorus ligation; experiment: Antigastric ulcer screening by four different models (statements in words); conditions: summary statement
Description: The compounds taken under study for antigastric ulcer screening by four different models were selected using experimental albino rats: • 1. Aspirin induced gastric ulceration • 2. Pylorus ligated gastric ulceration • 3. Ethanol induced gastric ulceration • 4. Stress induced gastric ulceration
The commercially available drug ranitidine (sigma), Omeprazole (sigma) and sucralfate (Merck) were used as reference standard in experimental models. The Tween-80 (SD fine chemicals) was used as vehicle for the administration of the drug, which is used as control.

With `COC(=O)C1OC(Oc2ccc3c(=O)cc(-c4ccccc4)oc3c2)C(O)C(O)C1O` (stereo not drawn) [CGL, 3,4,5-trihydroxy-6-(4-oxo-2-phenyl-4-H-chromen-7-yoloxy) tetrahydro-pyran-2-carboxylicacid methyl ester] the Inhibition % [1] was 70.46%, the “Ulcer index Mean(SE)” value [1] was 13.33 and the Inhibition % [2] was 62.50%. For the same molecule, the “Ulcer index Mean(SE)” value [2] was 25.00 (±2.88), the “Acidity Total mEg” value ([2]; 4 hours after pylorus ligation) was 39.00 (±1.52) mEg and the Gastric content ([2]; 4 hours after pylorus ligation) was 4.60 (±0.20). For the same molecule, the pH ([2]; 4 hours after pylorus ligation) was 3.91 (±0.21), the “Acidity Total mEg” value [3] was 40.00 (±1.15) m Eg and the Gastric content [3] was 4.83 (±0.44). For the same molecule, the Inhibition % [3] was 60.17%, the “Ulcer index Mean(SE)” value [3] was 19.96 (±6.66) and the pH [3] was 3.08 (±0.22). The Inhibition % [4] was 50.22%, the “Ulcer index Mean(SE)” value [4] was 20.00 and the “antiulcer activity (in words)” value [5] was “very good activity”.
